Here are results for 15 molecules from ChEMBL document CHEMBL5154803, “Spermine-Conjugated Short Proline-Rich Lipopeptides as Broad-Spectrum Intracellular Targeting Antibacterial Agents” (J Med Chem, 2022).

Converted amounts (≈) assume the structure as drawn. The source made the active and inactive calls. No cut-off for these calls is given here. Where a SMILES comes first, the peptide text is derived from it. The star is where a group is joined. Myristoyl = CCCCCCCCCCCCCC(=O)*; Decanoyl = CCCCCCCCCC(=O)*; Spermine = NCCCNCCCCNCCCN*

Data set [1] has as its system Staphylococcus aureus. In words: Antibacterial activity against MDR-methicillin-resistant Staphylococcus aureus ATCC BAA-44 assessed as reduction in bacterial growth measured after 18 hrs by broth microdilution method. Type of data set: functional.
The test system of data set [2] is Staphylococcus aureus. In words: Antibacterial activity against Staphylococcus aureus ATCC 25923 assessed as reduction in bacterial growth measured after 18 hrs by broth microdilution method. The data set is classed as functional.
The test system of data set [3] is Staphylococcus aureus. Description: Antibacterial activity against methicillin-resistant Staphylococcus aureus ATCC 33591 assessed as reduction in bacterial growth measured after 18 hrs by broth microdilution method. Type of data set: functional.
A further data set concerns Pseudomonas aeruginosa. In words: Antibacterial activity against Pseudomonas aeruginosa ATCC BAA-427 assessed as reduction in bacterial growth measured after 18 hrs by broth microdilution method. Type of data set: functional.
Data set [4] relates to Staphylococcus epidermidis. Description: Antibacterial activity against methicillin-resistant Staphylococcus epidermidis ATCC 51625 assessed as reduction in bacterial growth measured after 18 hrs by broth microdilution method. The data set is classed as functional.
Another data set relates to Acinetobacter baumannii. Description: Antibacterial activity against Acinetobacter baumannii i ATCC 19606 assessed as reduction in bacterial growth measured after 18 hrs by broth microdilution method. The data set is classed as functional.
The subject of data set [5] is Escherichia coli. Description: Antibacterial activity against Escherichia coli ATCC 25922 assessed as reduction in bacterial growth measured after 18 hrs by broth microdilution method. Type of data set: functional.
The test system of data set [6] is Staphylococcus epidermidis. In words: Antibacterial activity against Staphylococcus epidermidis ATCC 12228 assessed as reduction in bacterial growth measured after 18 hrs by broth microdilution method. The data set is classed as functional.
Data set [7] deals with Cell membrane. Description: Disruption of bacterial cell membrane in Escherichia coli ATCC 25922 assessed as proportion of bacteria with intact cell membrane at 5X MIC incubated for 1 hr by PI staining based flow cytometric analysis (reference value: 99.3%). The data set is classed as subcellular.
For data set [8], the system named is Cell membrane. In words: Disruption of bacterial cell membrane in Escherichia coli ATCC 25922 at 5XMIC by SEM analysis. Type of data set: subcellular.
In data set [9] the test system is Cell membrane. In words: Disruption of bacterial cell membrane in Escherichia coli ATCC 25922 assessed as proportion of bacteria with damaged cell membrane at 5X MIC incubated for 1 hr by PI staining based flow cytometric analysis (reference value: 0.7%). Type of data set: subcellular.
Data set [10] is described as follows: Cytotoxicity against human THP-1 cells assessed as cell viability at 50 uM by MTT assay. Type of data set: toxicity, cell-based. As to conditions: read-out: Activity.
A further data set deals with Erythrocyte. In words: Hemolytic activity against human RBC assessed as hemolysis upto 100 uM incubated for 1 hr by ELISA plate reader analysis. Type of data set: toxicity, cell-based.
In data set [11] the test system is Escherichia coli. Description: Antibacterial activity against Escherichia coli ATCC 25922 assessed as reduction in bacterial growth measured after 18 hrs in presence of 10% v/v human serum in MHB by broth microdilution method. Type of data set: functional. As to conditions: ATCC 25922, Serum.
In data set [12] the test system is Staphylococcus aureus. Description: In vivo antibacterial activity against Staphylococcus aureus ATCC 25923 infected in BALB/c mouse model assessed as reduction of bacterial load in liver at 100 mg/kg, ip administered as single dose measured after 24 hrs by colony counting based analysis. Type of data set: functional, organism-based.
Data set [13] concerns Staphylococcus aureus. Description: In vivo antibacterial activity against Staphylococcus aureus ATCC 25923 infected in BALB/c mouse model assessed as reduction of bacterial load in kidney at 100 mg/kg, ip administered as single dose measured after 24 hrs by colony counting based analysis. Type of data set: functional, organism-based.
Data set [14] relates to Staphylococcus aureus. In words: In vivo antibacterial activity against Staphylococcus aureus ATCC 25923 infected in BALB/c mouse model assessed as reduction of bacterial load in spleen at 100 mg/kg, ip administered as single dose measured after 24 hrs by colony counting based analysis. The data set is classed as functional, organism-based.

In the case of H-PRPRPPR-OH, the MIC (in the data set on Staphylococcus aureus [1]; with Staphylococcus aureus [2]; in the data set with Staphylococcus aureus [3]; in the data set with Pseudomonas aeruginosa; in [4]; in the data set on Acinetobacter baumannii) was above 200 µM in each case. Also, the MIC (with Escherichia coli [5]; in [6]) was above 200 µM throughout.

On to `CCCCCCCCCC(=O)N1CCC[C@H]1C(=O)N[C@@H](CCCNC(=N)N)C(=O)N1CCC[C@H]1C(=O)N[C@@H](CCCNC(=N)N)C(=O)N1CCC[C@H]1C(=O)N1CCC[C@H]1C(=O)N[C@@H](CCCNC(=N)N)C(=O)O` (Decanoyl-PRPRPPR-OH), for which the MIC (in the data set with Staphylococcus aureus [1]; with Staphylococcus aureus [2]; in the data set with Staphylococcus aureus [3]; in the data set on Pseudomonas aeruginosa; in data set [4]; in the data set on Acinetobacter baumannii) was above 200 µM throughout. The MIC (with Escherichia coli [5]; in data set [6]) was above 200 µM each time.

Regarding `N=C(N)NCCC[C@H](NC(=O)[C@@H]1CCCN1C(=O)[C@@H]1CCCN1C(=O)[C@H](CCCNC(=N)N)NC(=O)[C@@H]1CCCN1C(=O)[C@H](CCCNC(=N)N)NC(=O)[C@@H]1CCCN1)C(=O)NCCCNCCCCNCCCN` (H-PRPRPPR-Spermine), the MIC in the data set on Staphylococcus aureus [1] is above 200 µM; in the data set with Staphylococcus aureus [2] it was 200 µM (≈ 212 µg/mL); with Staphylococcus aureus [3], above 200 µM; in the data set on Pseudomonas aeruginosa it was above 200 µM; in [4] it was above 200 µM; in the data set on Acinetobacter baumannii, above 200 µM. For the same molecule, the MIC (in the data set on Escherichia coli [5]; in [6]) was above 200 µM throughout.

Take `O=C(N[C@H](CO)[C@H](O)c1ccc([N+](=O)[O-])cc1)C(Cl)Cl` [CHLORAMPHENICOL]: in the data set on Staphylococcus aureus [1], the MIC came out at 1000 µM (≈ 323 µg/mL).

For the molecule `CC[C@H](C)[C@H](NC(=O)CN)C(=O)NCC(=O)N[C@@H](C)C(=O)N[C@H](C(=O)N[C@@H](CC(C)C)C(=O)N[C@@H](CCCCN)C(=O)N[C@H](C(=O)N[C@@H](CC(C)C)C(=O)N[C@H](C(=O)N[C@H](C(=O)NCC(=O)N[C@@H](CC(C)C)C(=O)N1CCC[C@H]1C(=O)N[C@@H](C)C(=O)N[C@@H](CC(C)C)C(=O)N[C@H](C(=O)N[C@@H](CO)C(=O)N[C@@H](Cc1c[nH]c2ccccc12)C(=O)N[C@H](C(=O)N[C@@H](CCCCN)C(=O)N[C@@H](CCCNC(=N)N)C(=O)N[C@@H](CCCCN)C(=O)N[C@@H](CCCNC(=N)N)C(=O)N[C@@H](CCC(N)=O)C(=O)N[C@@H](CCC(N)=O)C(N)=O)[C@@H](C)CC)[C@@H](C)CC)[C@@H](C)O)[C@@H](C)O)C(C)C)C(C)C`, the figures for the Activity in the data set with Cell membrane [7] and in the data set on Cell membrane [9] were 36% and 64%, respectively. For the same molecule, the outcome in the data set with Cell membrane [8] was Active.

On to `CN[C@H](CC(C)C)C(=O)N[C@H]1C(=O)N[C@@H](CC(N)=O)C(=O)N[C@H]2C(=O)N[C@H]3C(=O)N[C@H](C(=O)N[C@H](C(=O)O)c4cc(O)cc(O)c4-c4cc3ccc4O)[C@H](O)c3ccc(c(Cl)c3)Oc3cc2cc(c3O[C@@H]2O[C@H](CO)[C@@H](O)[C@H](O)[C@H]2O[C@H]2C[C@](C)(N)[C@H](O)[C@H](C)O2)Oc2ccc(cc2Cl)[C@H]1O` [VANCOMYCIN], for which the MIC with Staphylococcus aureus [1] was 0.8 µM (≈ 1.16 µg/mL); in the data set on Staphylococcus aureus [2], 0.4 µM (≈ 0.58 µg/mL); in the data set with Staphylococcus aureus [3] it was 0.8 µM (≈ 1.16 µg/mL); in data set [4], 0.8 µM (≈ 1.16 µg/mL); with Acinetobacter baumannii it was 56.8 µM (≈ 82.3 µg/mL); in the data set on Escherichia coli [5], 200 µM (≈ 290 µg/mL). Also, in data set [6], the MIC is 0.4 µM (≈ 0.58 µg/mL).

In the case of `CCCCCCCCCCCCCC(=O)N1CCC[C@H]1C(=O)N[C@@H](CCCNC(=N)N)C(=O)N1CCC[C@H]1C(=O)N[C@@H](CCCNC(=N)N)C(=O)N1CCC[C@H]1C(=O)N1CCC[C@H]1C(=O)N[C@@H](CCCNC(=N)N)C(=O)NCCCNCCCCNCCCN` (Myristoyl-PRPRPPR-Spermine), the minimal inhibitory concentration (MIC) with Staphylococcus aureus [1] turned out to be 1.5 µM (≈ 1.9 µg/mL); in the data set on Staphylococcus aureus [2] it was 3.1 µM (≈ 3.94 µg/mL); in the data set on Staphylococcus aureus [3], 1.5 µM (≈ 1.9 µg/mL); with Pseudomonas aeruginosa, 6.2 µM (≈ 7.87 µg/mL); in data set [4], 1.5 µM (≈ 1.9 µg/mL); in the data set with Acinetobacter baumannii, 6.2 µM (≈ 7.87 µg/mL). The MIC in the data set on Escherichia coli [5] was determined as 3.1 µM (≈ 3.94 µg/mL); with Escherichia coli [11], 3.1 µM; in data set [6], 1.5 µM (≈ 1.9 µg/mL). Besides, the viability at 50 µM in [10] came to 40%. Moreover, in the data set with Erythrocyte, the Activity result is “Toxic”.

Take `CN(C)[C@@H]1C(O)=C(C(N)=O)C(=O)[C@@]2(O)C(O)=C3C(=O)c4c(O)cccc4[C@@](C)(O)[C@H]3C[C@@H]12` [TETRACYCLINE]: the MIC in the data set on Staphylococcus aureus [1] was 62.5 µM (≈ 27.8 µg/mL).

For the molecule `C[C@H]1COc2c(N3CCN(C)CC3)c(F)cc3c(=O)c(C(=O)O)cn1c23`, the result in the data set with Staphylococcus aureus [12], in the data set with Staphylococcus aureus [13] and with Staphylococcus aureus [14] was Active.

As for `CCCCCCCCCCCC(=O)NCCCNCCCCNCCCN`, the MIC (in the data set with Staphylococcus aureus [1]; in the data set with Staphylococcus aureus [2]; in the data set with Staphylococcus aureus [3]; with Pseudomonas aeruginosa; in [4]; in the data set on Acinetobacter baumannii) was above 200 µM each time. The MIC (in the data set with Escherichia coli [5]; in data set [6]) was above 200 µM each time.

Take `NC[C@@H]1O[C@H](O[C@H]2[C@@H](O)[C@H](O[C@@H]3[C@@H](O)[C@H](N)C[C@H](N)[C@H]3O[C@H]3O[C@H](CN)[C@@H](O)[C@H](O)[C@H]3N)O[C@@H]2CO)[C@H](N)[C@@H](O)[C@@H]1O` [FRAMYCETIN]: the minimal inhibitory concentration (MIC) in the data set with Staphylococcus aureus [1] is 125 µM (≈ 76.8 µg/mL).

Regarding GENTAMICIN, the MIC with Staphylococcus aureus [1] is 2.5 µM.

For `CO[C@H]1/C=C/O[C@@]2(C)Oc3c(C)c(O)c4c(O)c(c(/C=N/N5CCN(C)CC5)c(O)c4c3C2=O)NC(=O)/C(C)=C\C=C\[C@H](C)[C@H](O)[C@@H](C)[C@@H](O)[C@@H](C)[C@H](OC(C)=O)[C@@H]1C` [RIFAMPIN], in the data set with Staphylococcus aureus [1], the minimal inhibitory concentration (MIC) was found to be 1.25 µM (≈ 1.03 µg/mL).

Turning to `CC1(C)S[C@@H]2[C@H](NC(=O)[C@H](N)c3ccccc3)C(=O)N2[C@H]1C(=O)O` [AMPICILLIN], in the data set with Staphylococcus aureus [1], the minimum inhibitory concentration (MIC) is 125 µM (≈ 43.7 µg/mL).

As for `CCCCCCCCCC(=O)NCCCNCCCCNCCCN`, the minimum inhibitory concentration (MIC) (with Staphylococcus aureus [1]; in the data set with Staphylococcus aureus [2]; in the data set on Staphylococcus aureus [3]; with Pseudomonas aeruginosa; in data set [4]; with Acinetobacter baumannii) was above 200 µM each time. Further, the MIC (in the data set with Escherichia coli [5]; in data set [6]) was above 200 µM in each case.
